Assay results published in patent US12351587B2, “Bicyclic compound as RIP-1 kinase inhibitor and application thereof” (MEDSHINE DISCOVERY INC., priority 2019, dated 2025).

Key:
[1] = Pharmacokinetics in C57BL/6 mice; type: in vivo; conditions: C57BL/6, plasma, mouse
Description: Eight healthy adult C57BL/6 mice (6-9 weeks old, purchased from Shanghai Lingchang Biotechnology Co., Ltd.) were selected, and randomly divided into two groups, 4 mice in each group (n=2, cross blood sampling). One group was given 0.5 mg/kg of the assay compound by intravenous injection, and the other group was given 1 mg/kg of the assay compound by gavage. Plasma samples were collected respectively from animals in the intravenous group and gavage group at 0.083, 0.25, 0.5, 1.0, 2.0, 4.0, 6.0, 8.0, 24 hours after administration. The blood concentration was determined by LC-MS/MS method. Relevant pharmacokinetic parameters were calculated by WinNonlin™ Version 6.3 (Pharsight, Mountain View, CA) pharmacokinetic software using non-compartmental model and linear logarithmic trapezoidal method. AUC0-last represents the area under the plasma concentration-time curve from zero time point to the last detectable concentration time point; Cmax represents the peak concentration; Tmax represents the time to reach the peak; T1/2 represents the half-life. CL represents the clearance rate; Tlast represents the last quantifiable time point; p.o. represents per os; i.v. represents intravenous injection; and F % represents oral bioavailability.

[2] = In vitro Caco-2 cell permeability assay; type: in vitro ADME; conditions: human, pH 7.4, Caco-2, 2 μM
Description: MEM (minimum essential medium) supplemented with 2 mM L-glutamine, 10% Fetal Bovine Serum (FBS), 100 U/mL penicillin-G and 100 μg/mL streptomycin was used for cell culture. The conditions for cell culture were 37±1° C., 5% CO2 and saturated humidity. When cells were grown to 80-90% confluency, trypsin (0.05%, w/v)/EDTA (0.02% w/v) digestion solution was added to digest the cells for seeding. The cells were seeded in BD Falcon's Transwell-96-well plate at a seeding density of 1×10^5 cells/cm^2. The cells were cultured in a carbon dioxide incubator for 22 days and then used for transport assay. […]
In this assay, liquid chromatography tandem mass spectrometry (LC/MS/MS) was used to semi-quantitatively analyze the peak area ratio of the assay compound and the control substances fenoterol, propranolol and digoxin to the internal standard in the starting solution, the receiving solution, and the supernatant of the dosing well. […]
Apparent permeability coefficient (Papp, cm/s), efflux rate and recovery rate were calculated using the following formulae.
The apparent permeability coefficient (Papp, cm/s) was calculated using the following formula: Papp=(dCr/dt)×Vr/(A×C0) […]
The efflux rate was calculated using the following formula: Efflux rate=Papp(BA)/Papp(AB) The recovery rate was calculated using the following formula: % recovery rate=100×[(Vr×Cr)+(Vd×Cd)]/(Vd×C0) […]

[3] = Plasma protein binding rate (PPB), rat plasma; type: in vitro ADME, SD rats; conditions: 2 μM, dialysis 4 hours 37° C.
Description: 796 μL of bank plasma from humans, SD rats and CD-1 mice (plasma purchased from BioreclamationIVT) were weighed, and the assay compound working solution or warfarin working solution was added so that the final concentration of the assay compound and warfarin in the plasma sample was 2 μM. The samples were mixed thoroughly. The final concentration of DMSO in the organic phase was 0.5%, 50 μL of plasma samples of the assay compound and warfarin were pipetted to a sample receiving plate, and the corresponding volume of the corresponding blank plasma or buffer was added immediately, so that the final volume in each sample well was 100 μL, wherein the volume ratio of plasma:dialysis buffer was 1:1. Stop solution was then added to these samples. These samples were used as T0 samples for determination of recovery and stability. The plasma samples of the assay compound and warfarin were added to the dosing end of each dialysis well, and blank dialysis buffer was added to the corresponding receiving end of the dialysis well. […] All samples were subjected to protein precipitation, and then analyzed by LC/MS/MS. Unbound rate (% Unbound), bound rate (% Bound), and recovery rate (% Recovery) of the compound were calculated using the following formulae: % Unbound=100*FC/TC, % Bond=100−% Unbound, and % Recovery=100*[…]/T0, […]

CN1C(=S)[C@@H](NC(=O)c2ncn(Cc3ccccc3)n2)COc2cccnc21 [WX009]
AUC(0-t) ([1]; iv, i.v. 0.5 mg/kg): 2.21 µM·h
clearance ([1]; iv, i.v. 0.5 mg/kg): 9.4 mL/min/kg
half-life ([1]; iv, i.v. 0.5 mg/kg): 84 min
Vd ([1]; iv, i.v. 0.5 mg/kg, read-out: Vdss): 1.1 L/kg
bioavailability ([1]; oral, p.o. 1 mg/kg vs i.v. 0.5 mg/kg): 89.1%
AUC(0-t) ([1]; po, p.o. 1 mg/kg): 3.85 µM·h
Cmax ([1]; po, p.o. 1 mg/kg): 1500 nM
Tmax ([1]; po, p.o. 1 mg/kg): 30 min
Papp at 120 min, 2 μM ([2]; 120 minutes, pH 7.40, read-out: Apparent permeability coefficient): 18.4 ×10⁻⁶ cm/s
efflux ratio at 120 min, 2 μM ([2]; Papp(BA)/Papp(AB), read-out: Efflux rate): 0.75
PPB_Unbound [3]: 29.7%
